Columns and labels:
Type in all cases: in vivo
129S6/SvEv mice = assay: 3-shock contextual fear conditioning (CFC); conditions: for freezing at re-exposure to the training context (learned fear) vs saline: re-exposure 5 days later
Procedure: (§1) This chronic CORT elevation dysregulates the hypothalamic-pituitary-adrenal axis (HPA) in a manner similar to that observed in clinical depression. The dose and duration of CORT treatment was selected based on previous studies. CORT (35 μg/ml, equivalent to about 5 mg/kg/day) dissolved in 0.45% hydroxypropyl-o-cyclodextrin (0-CD) or vehicle (VEH) (0.45% j-CD) was available ad libitum in the drinking water in opaque bottles to protect it from light. VEH- and CORT-treated water was changed every 3 days to prevent possible degradation. Contextual Fear Conditioning (CFC): A 3-shock CFC procedure was administered as previously published. Briefly, mice were placed into context A and administered 3 2-s shocks (0.75 mA) at 180 s, 240 s or 300 s following placement into context A. Mice were removed from the context 15 s following the termination of shock (at 317 s). For context retrieval, mice were placed back into context A for 300 s. Electrophysiology: Electrophysiology was conducted as previously described. Statistical Analysis: Results from data analyses are expressed as means±SEM. Alpha was set to 0.05 for all analyses. Data were analyzed using GraphPad Prism v7.0 or v8.0. For all experiments, unless otherwise noted, one- or two-way ANOVAs with repeated-measures were applied to the data as appropriate. Significant main effects and/or interactions were followed by Fisher's PLSD post hoc analysis or unpaired t-tests. Drugs: All drugs were prepared in physiological saline and all injections were administered intraperitoneally (i.p.) in volumes of 0.1 cc per […] body weight unless otherwise noted. Fluoxetine hydrochloride (Flx): Flx (BioTrend Chemicals AG, BG197, Zurich, Germany) was administered in the drinking water (18 mg/kg/day) for 3 weeks before the start of CORT. […] (R,S)-ketamine (K): (R,S)-ketamine (Ketaset III, Ketamine HCl injection, Fort Dodge Animal Health, Fort Dodge, Iowa) was administered in a single dose at 30 mg/kg of body weight 1 week before the start of CFC. […] PF-04995274: PF-04995274 (Sigma, Catalog No. 1331782-27-4, St. Louis, Mo.) was administered a single dose at 3 or 10 mg/kg of body weight 1 week before the start of CFC. PF-04995274 was dissolved in saline using an ultrasonic homogenizer (BioLogics, Model 3000, Manassas, Va.). Osmotic minipump implantation: ALZET osmotic minipumps (Model 2004, […], 28 days) were implanted subcutaneously under isoflurane anesthesia as previously described [S2]. Osmotic minipumps were rotated under the skin two to three times per week. Behavioral Assays: All experiments were approved by the Institutional Animal Care and Use Committee (IACUC) at the New York Psychiatric Institute (NYSPI). Elevated Plus Maze (EPM): Testing was performed as previously described [S3]. Briefly, the maze is a plus-cross-shaped apparatus consisting of four arms, two open and two enclosed by walls, linked by a central platform at a height of 50 cm from the floor. Mice were individually placed in the center of the maze facing an open arm and were allowed to explore the maze for 5 min. The time spent in and the number of entries into the open arms was used as an anxiety index. Videos were scored using ANY-maze behavior tracking software (Stoelting, Wood Dale, Ill.). Novelty-Suppressed Feeding: The NSF is a conflict test that elicits competing motivations: the drive to eat and the fear of venturing into the center of a brightly lit arena. The latency to feed is used as an index of anxiety-like behavior, because classical anxiolytic drugs decrease this measure. The NSF test was carried out during an 8 min period as previously described [S3]. Briefly, the testing apparatus consisted of a plastic box (50×50×20 cm), the floor of which was covered with approximately 2 cm of bedding. For 129S6/SvEv experiments, mice were food restricted for 12 h. For the C57BL/6N experiments, mice were food restricted for 24 h. […]

C57BL/6NTac mice [1] = assay: Adverse side effects of chronic administration
Procedure: (§2) This chronic CORT elevation dysregulates the hypothalamic-pituitary-adrenal axis (HPA) in a manner similar to that observed in clinical depression. The dose and duration of CORT treatment was selected based on previous studies. CORT (35 μg/ml, equivalent to about 5 mg/kg/day) dissolved in 0.45% hydroxypropyl-o-cyclodextrin (0-CD) or vehicle (VEH) (0.45% j-CD) was available ad libitum in the drinking water in opaque bottles to protect it from light. VEH- and CORT-treated water was changed every 3 days to prevent possible degradation. Contextual Fear Conditioning (CFC): A 3-shock CFC procedure was administered as previously published. Briefly, mice were placed into context A and administered 3 2-s shocks (0.75 mA) at 180 s, 240 s or 300 s following placement into context A. Mice were removed from the context 15 s following the termination of shock (at 317 s). For context retrieval, mice were placed back into context A for 300 s. Electrophysiology: Electrophysiology was conducted as previously described. Statistical Analysis: Results from data analyses are expressed as means±SEM. Alpha was set to 0.05 for all analyses. Data were analyzed using GraphPad Prism v7.0 or v8.0. For all experiments, unless otherwise noted, one- or two-way ANOVAs with repeated-measures were applied to the data as appropriate. […] Videos were scored using ANY-maze behavior tracking software (Stoelting, Wood Dale, Ill.). […]

C57BL/6NTac mice [2] = assay: Elevated plus maze (EPM) in CORT model; conditions: male C57BL/6NTac; Flx 18 mg/kg/day or RS-67,333 1.5 mg/kg/day for 3 weeks prior to CORT
Procedure: as §1, with “Elevated Plus Maze (EPM): Testing was performed as previously described [S3]. Briefly, the maze is a plus-cross-shaped apparatus consisting of four arms, two open and two enclosed by walls, linked by a central platform at a height of 50 cm from the floor. Mice were individually placed in the center of the maze facing an open arm and were allowed to explore the maze for 5 min. The time spent in and the number of entries into the open arms was used as an anxiety index.” left out, “Ill.).” for “Ill.). Novelty-Suppressed Feeding: The NSF is a conflict test that elicits competing motivations: the drive to eat and the fear of venturing into the center of a brightly lit arena. The latency to feed is used as an index of anxiety-like behavior, because classical anxiolytic drugs decrease this measure. The NSF test was carried out during an 8 min period as previously described [S3]. Briefly, the testing apparatus consisted of a plastic box (50×50×20 cm), the floor of which was covered with approximately 2 cm of bedding. For 129S6/SvEv experiments, mice were food restricted for 12 h. For the C57BL/6N experiments, mice were food restricted for 24 h.”

C57BL/6NTac mice [3] = assay: Novelty-suppressed feeding (NSF) in CORT model; conditions: male C57BL/6NTac; Flx 18 mg/kg/day or RS-67,333 1.5 mg/kg/day for 3 weeks prior to CORT
Procedure: as §2

[4] = FIG. 3 Acute RS67333 cohort, FIG. 3B, Fisher's PLSD

CCCCN1CCC(CCC(=O)c2cc(Cl)c(N)cc2OC)CC1.Cl [RS-67,333, 1-(4-amino-5-chloro-2-methoxyphenyl)-3-[1(n-butyl)-4-piperidinyl]-1-propanone HCl]
p, RS67333 (10 mg/kg) vs. RS67333 (30 mg/kg) (129S6/SvEv mice; FIG. 2 cohort, post-hoc comparison, measurement head lies above the shown rows (block before FST)): 0.3050
p, CFC Trainging Freezing (%), RS67333 (1.5 mg/kg) vs. RS67333 (10 mg/kg) (129S6/SvEv mice; [4]): 0.3858
p, CFC Trainging Freezing (%), Saline vs. RS67333 (1.5 mg/kg) (129S6/SvEv mice; [4]): 0.0941
p, CFC Trainging Freezing (%), Saline vs. RS67333 (10 mg/kg) (129S6/SvEv mice; [4]): 0.0076
p, CFC Training Freezing (min 1), RS67333 (1.5 mg/kg) vs. RS67333 (10 mg/kg) (129S6/SvEv mice; FIG. 3 cohort, Fisher's PLSD): 0.9715
p, CFC Training Freezing (min 1), Saline vs. RS67333 (1.5 mg/kg) (129S6/SvEv mice; FIG. 3 cohort, Fisher's PLSD): 0.8847
p, CFC Training Freezing (min 1), Saline vs. RS67333 (10 mg/kg) (129S6/SvEv mice; FIG. 3 cohort, Fisher's PLSD): 0.9054
p, CFC Training Freezing (min 3), RS67333 (1.5 mg/kg) vs. RS67333 (10 mg/kg) (129S6/SvEv mice; FIG. 3 cohort, Fisher's PLSD): 0.8746
p, CFC Training Freezing (min 3), Saline vs. RS67333 (1.5 mg/kg) (129S6/SvEv mice; FIG. 3 cohort, Fisher's PLSD): 0.8999
p, CFC Training Freezing (min 3), Saline vs. RS67333 (10 mg/kg) (129S6/SvEv mice; FIG. 3 cohort, Fisher's PLSD): 0.9721
p, CFC Training Freezing (min 4), RS67333 (1.5 mg/kg) vs. RS67333 (10 mg/kg) (129S6/SvEv mice; FIG. 3 cohort, Fisher's PLSD): 0.7882
p, CFC Training Freezing (min 4), Saline vs. RS67333 (1.5 mg/kg) (129S6/SvEv mice; FIG. 3 cohort, Fisher's PLSD): 0.0168
p, CFC Training Freezing (min 4), Saline vs. RS67333 (10 mg/kg) (129S6/SvEv mice; FIG. 3 cohort, Fisher's PLSD): 0.0040
p, CFC Training Freezing (min 5), RS67333 (1.5 mg/kg) vs. RS67333 (10 mg/kg) (129S6/SvEv mice; FIG. 3 cohort, Fisher's PLSD): 0.0492
p, CFC Training Freezing (min 5), Saline vs. RS67333 (1.5 mg/kg) (129S6/SvEv mice; FIG. 3 cohort, Fisher's PLSD): 0.0117
p, CFC Training Freezing (min 5), Saline vs. RS67333 (10 mg/kg) (129S6/SvEv mice; FIG. 3 cohort, Fisher's PLSD): <0.0001
p, CFC Training freezing (min 2), RS67333 (1.5 mg/kg) vs. RS67333 (10 mg/kg) (129S6/SvEv mice; FIG. 3 cohort, Fisher's PLSD): 0.9854
p, CFC Training freezing (min 2), Saline vs. RS67333 (1.5 mg/kg) (129S6/SvEv mice; FIG. 3 cohort, Fisher's PLSD): 0.8966
p, CFC Training freezing (min 2), Saline vs. RS67333 (10 mg/kg) (129S6/SvEv mice; FIG. 3 cohort, Fisher's PLSD): 0.8719
freezing at re-exposure to the training context (129S6/SvEv mice; female 129S6/SvEv, 1.5 or 10 mg/kg vs saline, 5 days after CFC): comparable levels of freezing
freezing during CFC training (129S6/SvEv mice; female 129S6/SvEv, single injection 1 week before CFC, 1.5 or 10 mg/kg vs saline): comparable levels of freezing
freezing during CFC training vs saline (129S6/SvEv mice; male 129S6/SvEv, single i.p. injection 1 week before CFC, 30 mg/kg): significantly less freezing
freezing at re-exposure to the training context (learned fear) vs saline (129S6/SvEv mice; male 129S6/SvEv, single i.p. injection 1 week before CFC, 1.5 mg/kg): significantly less freezing
freezing at re-exposure to the training context (learned fear) vs saline (129S6/SvEv mice; male 129S6/SvEv, single i.p. injection 1 week before CFC, 10 mg/kg): significantly less freezing
adverse side effects (C57BL/6NTac mice [1]): did not result in adverse side effects
entries into the open arms of the EPM vs CORT+Veh (C57BL/6NTac mice [2]): significantly more entries
time spent in the open arms of the EPM vs VEH+Veh (C57BL/6NTac mice [2]): did not alter
latency to approach the food pellet (NSF) vs CORT+Veh (C57BL/6NTac mice [3]): significantly decreased latency

Source: patent US20220031684A1, “PROPHYLACTIC EFFICACY OF SEROTONIN 4 RECEPTOR AGONISTS AGAINST STRESS” (THE TRUSTEES OF COLUMBIA UNIVERSITY IN THE CITY OF NEW YORK, priority 2019, published 2022)
